Among the test systems are MOLM-13; CHRF288-11; ML-2; M07e; CMK; U937; MV4-11; CMS.
Common to all, as to parameters: species or system AML cell lines (8); Primary HTS, single concentration about 10 uM, Cell Titer Glo viability; log10 luminescence, per cent inhibition relative to cycloheximide control
Holding throughout (settings): 72 h, relative to cycloheximide control, log10 luminescence; inhibitor
On the technique in general: In ATP-based viability assays light output follows the ATP content of the culture.

Take `Fc1ccc(-c2ncn(C3CCNCC3)c2-c2ccnc(Oc3ccc(Oc4ccccc4)cc3)n2)cc1` [SJ000573126-1, JB27026-104B1]: the MOLM-13 %inh in the assay on MOLM-13 amounted to 28.44%. In the assay with CHRF288-11, the CHRF288-11 %inh was determined as 38.59%. For the same molecule, the ML-2 %inh with ML-2 is listed as 34.19%. Besides, the M07e %inh in the assay on M07e came out at 10.64%. Besides, the CMK %inh with CMK was found to be 18.72%. Moreover, the U937 %inh in the assay with U937 is 16.46%. Moreover, the MV4-11 %inh in the assay with MV4-11 amounted to 29.08%. Further, in the assay on CMS, the CMS %inh amounted to 2.898%.
With `COc1ccc(-c2ccncc2)cc1C(N)=O` [SJ000573127-1, R12444/16/1], in the assay with MOLM-13, the MOLM-13 %inh amounted to 4.454%. For the same molecule, in the assay on CHRF288-11, the CHRF288-11 %inh is reported as -1.562%. Further, the ML-2 %inh in the assay with ML-2 worked out at 2.021%. Also, the M07e %inh with M07e is 1.948%. Besides, the CMK %inh with CMK is reported as 5.063%. Also, the U937 %inh with U937 is 2.206%. The MV4-11 %inh in the assay on MV4-11 is given as -1.177%. Further, the CMS %inh in the assay with CMS was determined as 5.051%.
For the molecule `CNC(=O)c1cc(-c2ccc(F)cc2)cc(-c2ccc(S(=O)(=O)N3CCCC3)cc2)c1N` [SJ000573128-1, R11976/170/3], the MOLM-13 %inh with MOLM-13 was found to be 10.13%. In addition, the CHRF288-11 %inh with CHRF288-11 was determined as 14.81%. Besides, the ML-2 %inh in the assay on ML-2 stood at 6.119%. The M07e %inh in the assay with M07e stood at 5.294%. In addition, the CMK %inh in the assay with CMK is recorded as 31.99%. In addition, in the assay on U937, the U937 %inh came out at 15.8%. The MV4-11 %inh in the assay with MV4-11 is recorded as 2.522%. For the same molecule, the CMS %inh in the assay with CMS stood at 9.624%.
Turning to `COc1ccc2cc(-c3c(-c4ccncc4)nc(-c4ccc([S+](C)[O-])cc4)n3C)ccc2c1` (stereo not drawn) [SJ000573130-1, NJ44241-161A1], the MOLM-13 %inh in the assay on MOLM-13 is on record as -0.6311%. Moreover, in the assay on CHRF288-11, the CHRF288-11 %inh turned out to be 0.3346%. For the same molecule, the ML-2 %inh in the assay on ML-2 is reported as -0.4869%. Also, the M07e %inh in the assay with M07e is listed as -4.153%. Also, the CMK %inh in the assay on CMK is given as -2.307%. Also, the U937 %inh with U937 is given as -2.991%. The MV4-11 %inh in the assay with MV4-11 is listed as -3.083%. Besides, the CMS %inh in the assay on CMS was -2.967%.
Turning to `Fc1ccc(-c2nc3n(c2-c2ccncc2)CCS3)cc1` [SJ000573131-1, RJA-12113-255 | U519/32/1 | SKF 86002], the MOLM-13 %inh in the assay on MOLM-13 was -3.313%. Besides, the CHRF288-11 %inh with CHRF288-11 is reported as -0.4036%. For the same molecule, in the assay on ML-2, the ML-2 %inh is 0.01337%. The M07e %inh in the assay with M07e is 0.008042%. In the assay with CMK, the CMK %inh amounted to 1.491%. The U937 %inh in the assay on U937 is -2.013%. Further, in the assay on MV4-11, the MV4-11 %inh is reported as -2.292%. In addition, the CMS %inh with CMS was -0.311%.
Regarding `c1cnn2ncc(-c3ccnc(NCCCN4CCOCC4)n3)c2c1` [SJ000573132-1, U14929/199/1], the MOLM-13 %inh in the assay on MOLM-13 is reported as 36.05%. The CHRF288-11 %inh with CHRF288-11 came out at 17.57%. The ML-2 %inh in the assay with ML-2 worked out at 4.815%. In addition, in the assay with M07e, the M07e %inh was determined as 4.031%. In addition, the CMK %inh in the assay on CMK is 3.496%. The U937 %inh in the assay on U937 was 21.78%. In addition, the MV4-11 %inh in the assay on MV4-11 is 15.28%. For the same molecule, the CMS %inh with CMS is on record as 12.25%.
As for `CCS(=O)(=O)c1ccc(OC)c(Nc2ncc(-c3cccc(-c4ccccc4F)c3)o2)c1` [SJ000573133-1, U16399/42/1], the MOLM-13 %inh with MOLM-13 is recorded as 73.99%. Also, the CHRF288-11 %inh in the assay on CHRF288-11 was found to be 3.996%. Also, the ML-2 %inh in the assay on ML-2 turned out to be 1.693%. For the same molecule, the M07e %inh in the assay with M07e is reported as -0.6473%. Further, the CMK %inh with CMK is listed as -2.911%. The U937 %inh in the assay on U937 was -2.484%. Further, the MV4-11 %inh in the assay with MV4-11 was 49.91%. In addition, in the assay with CMS, the CMS %inh is -1.131%.
As for `Cc1ccc(Nc2ccnc(Nc3cccc(C(N)=O)c3)n2)cc1O` [SJ000573134-1, R4218/174/1], the MOLM-13 %inh in the assay on MOLM-13 is reported as 95.23%. Moreover, the CHRF288-11 %inh in the assay with CHRF288-11 is 5.659%. Further, the ML-2 %inh in the assay on ML-2 came to 3.588%. Besides, in the assay with M07e, the M07e %inh is 3.53%. For the same molecule, in the assay with CMK, the CMK %inh stood at 14.84%. For the same molecule, the U937 %inh in the assay with U937 is recorded as -1.642%. The MV4-11 %inh in the assay with MV4-11 was determined as 65.12%. The CMS %inh with CMS is -1.873%.
`CNC(=O)c1cccc(C#Cc2cncnc2Nc2ccc(OCc3cccc(F)c3)c(Cl)c2)c1` [SJ000573135-1, U17545/42/1]: the MOLM-13 %inh in the assay on MOLM-13 came to 2.058%. Moreover, the CHRF288-11 %inh in the assay with CHRF288-11 is -0.4909%. Moreover, the ML-2 %inh in the assay with ML-2 is 1.577%. Further, in the assay on M07e, the M07e %inh is reported as 2.556%. For the same molecule, in the assay on CMK, the CMK %inh is listed as 2.154%. In the assay with U937, the U937 %inh is recorded as 0.8403%. In the assay on MV4-11, the MV4-11 %inh came out at 0.5885%. In the assay with CMS, the CMS %inh is given as 2.176%.
As for `Cc1nc(-c2ccccc2)n2nc(NCCCN3CCOCC3)ncc12` [SJ000573136-1, U19891/100/1], the MOLM-13 %inh in the assay on MOLM-13 is reported as 7.46%. In addition, the CHRF288-11 %inh in the assay with CHRF288-11 is recorded as 6.275%. Also, the ML-2 %inh with ML-2 is on record as 5.663%. The M07e %inh in the assay on M07e was -0.8598%. Moreover, the CMK %inh in the assay with CMK is 23.01%. Moreover, in the assay on U937, the U937 %inh came out at 1.344%. Moreover, the MV4-11 %inh in the assay on MV4-11 was determined as 3.076%. In addition, in the assay on CMS, the CMS %inh came to 0.3241%.
For the molecule `N#Cc1cccc(Nc2ncc(-c3ccccc3)o2)c1` [SJ000573137-1, U15924/27/1], in the assay with MOLM-13, the MOLM-13 %inh was found to be 64.56%. Also, the CHRF288-11 %inh in the assay with CHRF288-11 was -9.448%. Besides, the ML-2 %inh in the assay on ML-2 is given as 1.759%. The M07e %inh in the assay with M07e is reported as -5.302%. Further, the CMK %inh in the assay with CMK turned out to be 10.57%. Also, the U937 %inh with U937 is reported as 0.4025%. The MV4-11 %inh with MV4-11 turned out to be 38.03%. The CMS %inh in the assay on CMS is -1.613%.
On to `CC1=C(C(=O)Nc2ccc3[nH]ncc3c2)C(c2ccc3ccccc3c2)CC(=O)N1` (stereo not drawn) [SJ000573139-1, KG204183-124A1], for which the MOLM-13 %inh with MOLM-13 is 1.247%. In addition, the CHRF288-11 %inh in the assay on CHRF288-11 is 15.76%. Also, the ML-2 %inh with ML-2 is 11.01%. Also, in the assay with M07e, the M07e %inh amounted to 1.439%. The CMK %inh in the assay on CMK was 48.89%. The U937 %inh in the assay on U937 was found to be 2.011%. In the assay on MV4-11, the MV4-11 %inh came to 30.46%. Further, the CMS %inh in the assay with CMS was determined as 1.368%.
For `NS(=O)(=O)c1ccc(-c2ccc3c(NC(=O)C4CC4)n[nH]c3c2)cc1` [SJ000573140-1, VB100064-161A1], in the assay with MOLM-13, the MOLM-13 %inh was -3.649%. In addition, the CHRF288-11 %inh in the assay with CHRF288-11 is listed as 4.361%. Also, the ML-2 %inh in the assay on ML-2 was 0.5159%. In addition, the M07e %inh with M07e is listed as -0.07238%. The CMK %inh in the assay with CMK is -4.867%. Further, the U937 %inh in the assay with U937 is -0.5779%. Besides, the MV4-11 %inh with MV4-11 is on record as -0.6023%. Moreover, the CMS %inh in the assay with CMS is given as -3.489%.
Regarding `CNC(=O)Oc1cc(C)c(/C=C/c2cncc(C(=O)NC)c2)c(C)c1` [SJ000573141-1, U11962/26/1], the MOLM-13 %inh in the assay with MOLM-13 is 3.548%. The CHRF288-11 %inh in the assay with CHRF288-11 is reported as 7.117%. In addition, the ML-2 %inh with ML-2 is given as 1.2%. Moreover, in the assay with M07e, the M07e %inh is 6.045%. Further, the CMK %inh in the assay on CMK was 8.893%. Besides, the U937 %inh in the assay with U937 was determined as 0.6726%. In addition, in the assay on MV4-11, the MV4-11 %inh is reported as 1.51%. Also, the CMS %inh in the assay with CMS is listed as -0.3622%.
Take `Nc1nccc(-c2c(-c3ccc(F)cc3)nn3cc(C(F)(F)F)ccc23)n1` [SJ000573142-1, U14741/95/1]: the MOLM-13 %inh in the assay with MOLM-13 turned out to be 0.5656%. The CHRF288-11 %inh in the assay on CHRF288-11 is 1.132%. For the same molecule, the ML-2 %inh in the assay on ML-2 is given as 1.904%. Further, the M07e %inh in the assay on M07e is listed as 93.92%. Besides, the CMK %inh in the assay on CMK is -0.4076%. The U937 %inh with U937 was -1.917%. For the same molecule, the MV4-11 %inh in the assay on MV4-11 is -1.787%. In addition, the CMS %inh with CMS was -0.8913%.

The record behind these values is paper PMC6522510 (Nature Communications, 2019).
